Measured values taken from US20070093520A1, “Method of treatment of diarrhea-predominant irritable bowel syndrome in a subject” (priority 2005, published 2007).

System: diarrhea-predominant IBS subjects
Test: 3007 Study: open-label 52-week safety study, adverse events and withdrawals
[1] = Placebo/Cilansetron 2 mg, N=279
[2] = Placebo/Cilansetron 2 mg, N=279, % of appropriate gender
[3] = Placebo/Cilansetron 2 mg, gender-specific

Structure (SMILES): Cc1nccn1C[C@H]1CCc2c(c3cccc4c3n2CCC4)C1=O [cilansetron, (R)-(−)-4,5,6,8,9,10-hexahydro-10-[(2-methyl-1H-imidazol-1-yl)methyl]-11H-pyrido-[3,2,1-jk]-carbazol-11-one]
- TEAE leading to permanent discontinuation: Urticaria NOS [1]: 1 (<1%) n (%)
- TEAE leading to permanent discontinuation: Vertigo [1]: 0 n (%)
- TEAE leading to permanent discontinuation: Visual Acuity Reduced [1]: 1 (<1%) n (%)
- TEAE leading to permanent discontinuation: Vomiting NOS [1]: 0 n (%)
- TEAE leading to permanent discontinuation: White Blood Cells Urine Positive [1]: 0 n (%)
- Total Number of Subjects with at Least One TEAE Leading to Discontinuation of Study Medication [1]: 50 (18%) n (%)
- TEAE leading to permanent discontinuation: Benign Ovarian Tumour* [2]: 1 (<1%) n (%)
- TEAE leading to permanent discontinuation: Breast Cancer NOS* [2]: 2 (1%) n (%)
- TEAE leading to permanent discontinuation: Ovarian Cancer NOS* [2]: 0 n (%)
- TEAE leading to permanent discontinuation: Ovarian Cystadenofibroma* [2]: 1 (<1%) n (%)
- TEAE leading to permanent discontinuation: Pregnancy NOS* [2]: 0 n (%)
- TEAE: Female Reproductive Tract Infections* [3]: 0 n (%)
- TEAE: Prostate Examination Abnormal* [3]: 0 n (%)
- TEAE: Smear Cervix Abnormal* [3]: 0 n (%)
- TEAE: Vaginal Candidiasis* [3]: 1 (<1%) n (%)
- TEAE: Vaginitis Bacterial NOS* [3]: 0 n (%)
- TEAE: Vaginitis* [3]: 0 n (%)
- TEAE: Vaginosis Fungal NOS* [3]: 1 (<1%) n (%)
- potential complications of constipation (Studies 3006 and 3007): two
- constipation episodes reported as SAEs (Study 3007): None
- constipation that led to dose reduction (Study 3007): seven
- deaths (Study 3007): No deaths
- longest duration of a constipation episode (Study 3007): 189 days
- mean longest duration of a constipation episode (Study 3007): 10.4 days
- median longest duration of a constipation episode (Study 3007): four
- subjects mildly bothered by the constipation (Study 3007): 8%
- subjects moderately bothered by the constipation (Study 3007): 7%
- subjects reporting only one constipation episode (Study 3007): 15%
- subjects with a constipation episode that lasted longer than 30 days (Study 3007): Thirteen
- subjects with an SAE reported as probably related to study medication (colitis ischemic) (Study 3007): One
- subjects with treatment-emergent SAEs reported as unlikely related to study medication (Study 3007): five
- treatment-emergent SAE: angina pectoris (Study 3007): two
- treatment-emergent SAE: breast cancer NOS (Study 3007): two
- treatment-emergent SAE: chest pain (Study 3007): two
- treatment-emergent SAEs of cardiac disorders (Study 3007): four
- treatment-emergent rectal hemorrhage (Study 3007): Eight
- overall safety, tolerability and QOL finding (Study 3007, 2 mg TID over 52 weeks): generally safe, well-tolerated, and improved QOL
- TEAE incidence: abdominal pain NOS (Study 3007, 18 to 40 years): 8%
- TEAE incidence: constipation (Study 3007, 18 to 40 years): 19%
- TEAE incidence: flatulence, bloating and distension (Study 3007, 18 to 40 years): 8%
- TEAE incidence: headache NOS (Study 3007, 18 to 40 years): 7%
- TEAE incidence: lower respiratory tract and lung infections (Study 3007, 18 to 40 years): 4%
- TEAE incidence: nausea and vomiting symptoms (Study 3007, 18 to 40 years): 9%
- TEAE incidence: sinusitis NOS (Study 3007, 18 to 40 years): 9%
- TEAE incidence: abdominal pain NOS (Study 3007, 41 to 64 years): 5%
- TEAE incidence: constipation (Study 3007, 41 to 64 years): 23%
- TEAE incidence: flatulence, bloating and distension (Study 3007, 41 to 64 years): 5%
- TEAE incidence: headache NOS (Study 3007, 41 to 64 years): 6%
- TEAE incidence: lower respiratory tract and lung infections (Study 3007, 41 to 64 years): 6%
- TEAE incidence: nausea and vomiting symptoms (Study 3007, 41 to 64 years): 6%
- TEAE incidence: sinusitis NOS (Study 3007, 41 to 64 years): 7%
- TEAE incidence: abdominal pain NOS (Study 3007, 65 years or older): 12%
- TEAE incidence: constipation (Study 3007, 65 years or older): 37%
- TEAE incidence: flatulence, bloating and distension (Study 3007, 65 years or older): 12%
- TEAE incidence: headache NOS (Study 3007, 65 years or older): 1%
- TEAE incidence: lower respiratory tract and lung infections (Study 3007, 65 years or older): 1%
- TEAE incidence: nausea and vomiting symptoms (Study 3007, 65 years or older): 1%
- TEAE incidence: sinusitis NOS (Study 3007, 65 years or older): 3%
- SAE: Abdominal Pain Upper (Study 3007, C/C): 1 (<1%) n (%)
- SAE: Adenomyosis* (Study 3007, C/C): 1 (<1%) n (%)
- SAE: Angina Pectoris (Study 3007, C/C): 2 (<1%) n (%)
- SAE: Appendicitis (Study 3007, C/C): 1 (<1%) n (%)
- SAE: Asthma NOS (Study 3007, C/C): 0 n (%)
- SAE: Benign Ovarian Tumour* (Study 3007, C/C): 0 n (%)
- SAE: Bladder Prolapse (Study 3007, C/C): 0 n (%)
- SAE: Bone Neoplasm Malignant (Study 3007, C/C): 1 (<1%) n (%)
- SAE: Breast Cancer NOS* (Study 3007, C/C): 0 n (%)
- SAE: Bronchopneumonia NOS (Study 3007, C/C): 0 n (%)
- SAE: Calculus Ureteric (Study 3007, C/C): 1 (<1%) n (%)
- SAE: Cardiac Disorders (Study 3007, C/C): 3 (1%) n (%)
- SAE: Chest Pain (Study 3007, C/C): 1 (<1%) n (%)
- SAE: Cholelithiasis (Study 3007, C/C): 1 (<1%) n (%)
- SAE: Colitis Ischaemic (Study 3007, C/C): 0 n (%)
- SAE: Depression (Study 3007, C/C): 0 n (%)
- SAE: Endometriosis* (Study 3007, C/C): 1 (<1%) n (%)
- SAE: Fibroma NOS (Study 3007, C/C): 0 n (%)
- SAE: Food Allergy (Study 3007, C/C): 0 n (%)
- SAE: Gastritis NOS (Study 3007, C/C): 1 (<1%) n (%)
- SAE: Gastroenteritis NOS (Study 3007, C/C): 1 (<1%) n (%)
- SAE: Gastrointestinal Disorders (Study 3007, C/C): 3 (1%) n (%)
- SAE: General Disorders and Administration Site Conditions (Study 3007, C/C): 1 (<1%) n (%)
- SAE: Hallucination NOS (Study 3007, C/C): 0 n (%)
- SAE: Hallucination, Auditory (Study 3007, C/C): 0 n (%)
- SAE: Heat Exhaustion (Study 3007, C/C): 1 (<1%) n (%)
